{"source": "patent US20150150266A1", "about": "“PESTICIDE COMPOUNDS, USE THEREOF AND METHOD OF PROTECTION OF PLANTS” (AGRA GROUP, A.S., priority 2012, published 2015)", "key": {"Aspergillus flavus": {"system": "Aspergillus flavus", "experiment": "Fungal mycelium growth inhibition assay (agar dilution)", "format": "cell-based", "details": "7 days at 21° C.", "protocol": "(§1) The assay for inhibitory activity of compounds of general formula (I) to radial growth and morphological effects to mycelia was carried out in agar by a multiple dilution method. The compound was diluted to concentrations shown in the Table in potato dextrose agar prepared in accordance with manufacturer's instructions. Petri dishes were filled with the thus prepared agar and aseptically inoculated with a disc of the diameter of 0.4 cm cut from a 7-day agar culture of the respective fungus. Controls were prepared in an analogous manner, using sterile distilled water instead of compound of general formula (I). The Petri dishes were incubated for 7 days at 21° C. and then the diameter of the colonies was measured. The percentage of inhibition of radial growth of the respective fungus was calculated according to the following equation: inhibition [%]=(DC-DT)/DC×100, wherein DC is the diameter of control colony and DT is the diameter of the colony grown on the agar containing the respective amount of compound of general formula (I). Standard deviation corresponds to averages from 3 replications.\n(§2) The compound Cu2SO3.CuSO3.2H2O inhibited the growth of all tested mycelia (Table 1). Individual micelia have shown a variation in the sensitivity to the compound and concentration dependency on the fungicide dose was observed."}, "Fusarium verticillioides": {"system": "Fusarium verticillioides", "experiment": "Fungal mycelium growth inhibition assay (agar dilution)", "format": "cell-based", "details": "7 days at 21° C.", "protocol": "as §1, §2"}, "Fusarium oxysporum": {"system": "Fusarium oxysporum", "experiment": "Fungal mycelium growth inhibition assay (agar dilution)", "format": "cell-based", "details": "7 days at 21° C.", "protocol": "as §1, §2"}, "Penicillium expansum": {"system": "Penicillium expansum", "experiment": "Fungal mycelium growth inhibition assay (agar dilution)", "format": "cell-based", "details": "7 days at 21° C.", "protocol": "as §1, §2"}, "Aspergillus fumigatus": {"system": "Aspergillus fumigatus", "experiment": "Fungal mycelium growth inhibition assay (agar dilution)", "format": "cell-based", "details": "7 days at 21° C.", "protocol": "as §1, §2"}, "[1]": {"system": "Penicillium brevicompactum", "experiment": "Fungal mycelium growth inhibition assay (agar dilution)", "format": "cell-based", "details": "7 days at 21° C.", "protocol": "as §1, §2"}, "Hordeum vulgare L.": {"system": "Hordeum vulgare L.", "experiment": "Field trial with crops, foliar spraying at BBCH 62", "format": "in vivo", "details": "for Yield / Yield, % of the control: foliar spraying of wettable powder A; for Yield, % of the control: control = water", "protocol": "(§3) The experimental field was chosen in a warm region suitable for beet cultivation, with sufficient precipitation, soil type was brown earth. The plants were treated using a common agrotechnology, with the exception of the application of fungicidal protection. […] Water was used as the negative control.\n(§4) At the end of the vegetative season, the crops were harvested and the yield was determined."}, "Triticum aestivum L.": {"system": "Triticum aestivum L.", "experiment": "Field trial with crops, foliar spraying at BBCH 62", "format": "in vivo", "details": "for Yield / Yield, % of the control: foliar spraying of wettable powder A; for Yield, % of the control: control = water", "protocol": "as §3, §4"}}, "note": "Marks after values point to notes of the source that are not given here.", "data": [{"smiles": "O.O.O=S([O-])[O-].O=S([O-])[O-].[Cu+2].[Cu+].[Cu+]", "note": "[Cu2SO3•CuSO3•2H2O, Cu2SO3.CuSO3.2H2O (Chevreul's salt)]", "values": [{"measurement": "Percentage of radial growth inhibition", "setting": "Aspergillus flavus; 0.3 mg/mL agar", "result": "97.67 ± 0.05", "unit": "%"}, {"measurement": "Percentage of radial growth inhibition", "setting": "Aspergillus flavus; 0.4 mg/mL agar", "result": "98.84 ± 0.05", "unit": "%"}, {"measurement": "Percentage of radial growth inhibition", "setting": "Aspergillus flavus; 0.5 mg/mL agar", "result": "100.00 ± 0.00", "unit": "%"}, {"measurement": "Percentage of radial growth inhibition", "setting": "Fusarium verticillioides; 0.3 mg/mL agar", "result": "−2.81 ± 0.00", "unit": "% ^2)"}, {"measurement": "Percentage of radial growth inhibition", "setting": "Fusarium verticillioides; 0.4 mg/mL agar", "result": "19.10 ± 0.16", "unit": "% ^2)"}, {"measurement": "Percentage of radial growth inhibition", "setting": "Fusarium verticillioides; 0.5 mg/mL agar", "result": "30.90 ± 0.00", "unit": "% ^2)"}, {"measurement": "Percentage of radial growth inhibition", "setting": "Fusarium oxysporum; 0.3 mg/mL agar", "result": "6.72 ± 0.05", "unit": "% ^1)"}, {"measurement": "Percentage of radial growth inhibition", "setting": "Fusarium oxysporum; 0.4 mg/mL agar", "result": "59.70 ± 0.16", "unit": "% ^1)"}, {"measurement": "Percentage of radial growth inhibition", "setting": "Fusarium oxysporum; 0.5 mg/mL agar", "result": "97.76 ± 0.00", "unit": "%"}, {"measurement": "Percentage of radial growth inhibition", "setting": "Penicillium expansum; 0.3 mg/mL agar", "result": "98.37 ± 0.05", "unit": "%"}, {"measurement": "Percentage of radial growth inhibition", "setting": "Penicillium expansum; 0.4 mg/mL agar", "result": "96.75 ± 0.05", "unit": "%"}, {"measurement": "Percentage of radial growth inhibition", "setting": "Penicillium expansum; 0.5 mg/mL agar", "result": "100.00 ± 0.00", "unit": "%"}, {"measurement": "Percentage of radial growth inhibition", "setting": "Aspergillus fumigatus; 0.3 mg/mL agar", "result": "100.00 ± 0.00", "unit": "%"}, {"measurement": "Percentage of radial growth inhibition", "setting": "Aspergillus fumigatus; 0.4 mg/mL agar", "result": "100.00 ± 0.00", "unit": "%"}, {"measurement": "Percentage of radial growth inhibition", "setting": "Aspergillus fumigatus; 0.5 mg/mL agar", "result": "100.00 ± 0.00", "unit": "%"}, {"measurement": "Percentage of radial growth inhibition", "setting": "[1]; 0.3 mg/mL agar", "result": "77.78 ± 0.09", "unit": "%"}, {"measurement": "Percentage of radial growth inhibition", "setting": "[1]; 0.4 mg/mL agar", "result": "95.24 ± 0.00", "unit": "%"}, {"measurement": "Percentage of radial growth inhibition", "setting": "[1]; 0.5 mg/mL agar", "result": "100.00 ± 0.00", "unit": "%"}, {"measurement": "Yield", "setting": "Hordeum vulgare L.; 2011, 125 g/ha", "result": 8.65, "unit": "t/ha"}, {"measurement": "Yield, % of the control", "setting": "Hordeum vulgare L.; 2011, 125 g/ha", "result": 103.2, "unit": "%"}, {"measurement": "Yield", "setting": "Hordeum vulgare L.; 2011, 625 g/ha", "result": 8.73, "unit": "t/ha"}, {"measurement": "Yield, % of the control", "setting": "Hordeum vulgare L.; 2011, 625 g/ha", "result": 104.2, "unit": "%"}, {"measurement": "Phytotoxic effects", "setting": "Hordeum vulgare L.; 2011, high dose 625 g/ha", "result": "No phytotoxic effects were observed even at this dose"}, {"measurement": "Occurrence of fusarioses or other fungal diseases", "setting": "Hordeum vulgare L.; field trial, doses of Table 3", "result": "neither occurrence of fusarioses or other fungal diseases"}, {"measurement": "Phytotoxic effects", "setting": "Hordeum vulgare L.; field trial, doses of Table 3", "result": "No phytotoxic effects were observed"}, {"measurement": "Yield", "setting": "Triticum aestivum L.; 2010, 125 g/ha", "result": 7.34, "unit": "t/ha"}, {"measurement": "Yield, % of the control", "setting": "Triticum aestivum L.; 2010, 125 g/ha", "result": 104.7, "unit": "%"}, {"measurement": "Yield", "setting": "Triticum aestivum L.; 2011, 125 g/ha", "result": 8.45, "unit": "t/ha"}, {"measurement": "Yield, % of the control", "setting": "Triticum aestivum L.; 2011, 125 g/ha", "result": 108.1, "unit": "%"}, {"measurement": "Yield", "setting": "Triticum aestivum L.; 2011, 625 g/ha", "result": 8.60, "unit": "t/ha"}, {"measurement": "Yield, % of the control", "setting": "Triticum aestivum L.; 2011, 625 g/ha", "result": 110.1, "unit": "%"}, {"measurement": "Phytotoxic effects", "setting": "Triticum aestivum L.; 2011, high dose 625 g/ha", "result": "No phytotoxic effects were observed even at this dose"}, {"measurement": "Occurrence of fusarioses or other fungal diseases", "setting": "Triticum aestivum L.; field trial, doses of Table 3", "result": "neither occurrence of fusarioses or other fungal diseases"}, {"measurement": "Phytotoxic effects", "setting": "Triticum aestivum L.; field trial, doses of Table 3", "result": "No phytotoxic effects were observed"}]}]}
